{"source": "patent US9724331B2", "about": "“Use of maleimide derivatives for preventing and treating leukemia” (CENTOGENE AG, priority 2012, dated 2017)", "key": {"recombinant human GSK3β": {"molecular_target": "T1, recombinant human GSK3β (Homo sapiens, UniProt P49841)", "T1 construct": "purchased Biomol, Hamburg, Germany", "T1 sequence (P49841 whole entry)": "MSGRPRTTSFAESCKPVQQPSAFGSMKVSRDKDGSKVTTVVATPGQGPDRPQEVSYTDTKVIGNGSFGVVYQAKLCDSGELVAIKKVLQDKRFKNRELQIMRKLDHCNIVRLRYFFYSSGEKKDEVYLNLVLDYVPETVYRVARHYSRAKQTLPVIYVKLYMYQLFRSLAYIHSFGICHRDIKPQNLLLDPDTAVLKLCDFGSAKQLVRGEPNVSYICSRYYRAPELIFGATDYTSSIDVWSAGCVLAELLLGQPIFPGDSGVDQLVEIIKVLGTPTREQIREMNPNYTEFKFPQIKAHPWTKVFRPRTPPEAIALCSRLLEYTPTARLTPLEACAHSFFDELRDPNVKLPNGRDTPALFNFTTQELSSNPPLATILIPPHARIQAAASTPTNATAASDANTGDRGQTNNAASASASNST", "assay": "GSK3β kinase activity assay (Kinase-Glo luminescence)", "type": "biochemical", "protocol": "The kinase activity assay was performed as previously described by Schmole et. al., 2010 (Schmole et al., 2010, Novel indolylmaleimide acts as GSK-3beta inhibitor in human neural progenitor cells. Bioorganic medicinal chemistry, 18, 6785-95). Briefly, recombinant human GSK3β (Biomol, Hamburg, Germany) was incubated with its substrate phospho glycogen synthase peptide 2 (pGS2) (Millipore, Billerica, USA), ATP (Cell Signaling, Frankfurt am Main, Germany) and different concentrations of PDA-66 for 30 min at 30° C. After addition of Kinase-Glo (Promega, Mannheim, Germany) and 10 min of incubation at room temperature the luminescence signal was measured with a Glomax 96 microplate reader (Promega). More specifically, recombinant human GSK3β was incubated with pGS2, ATP and different concentrations of PDA-66. […] In each experiment the concentrations of PDA-66 and the control were tested with 8 replicates. * Significant treatment effect vs. DMSO control, α=0.05.\nThe effect of PDA-66 on the enzyme activity of GSK3β was determined by incubation of the enzyme with a specific substrate, PDA-66 and ATP. With growing inhibitory effect there is more ATP present after the incubation. In a second step remaining ATP is converted to a luminescence signal, which is inversely proportional to the enzyme activity."}, "Jurkat cells [1]": {"system": "Jurkat cells", "assay": "May Grunwald-Giemsa staining, morphology by light microscopy", "type": "cell-based, human", "settings": "1 μM PDA-66, 48 h, vs. DMSO treated control cells", "protocol": "(§1) Cytospins of SEM and Jurkat cells were stained with May Grunwald-Giemsa Staining after 48 h of incubation with 1 μM PDA-66 and DMSO, respectively\n(§2) After treatment with 1 μM PDA-66 3×10^4 cells were brought onto object slides with Cytospin 3 centrifuge (Shandon, Frankfurt/Main, Germany). Subsequently cells were stained using May-Grunwald-Giemsa staining. Briefly, slides were incubated in May-Grunwald solution (Merck, Darmstadt, Germany) for 6 min, then washed with tap water, incubated in Giemsa solution (Merck, Darmstadt, Germany) for 20 min and washed in tap water again. After letting the slides dry the cells were analyzed by Nikon Eclipse E 600 light microscope and pictures were taken with NIS Elements software (Nikon, Düsseldorf, Germany)."}, "SEM cells [2]": {"system": "SEM cells", "assay": "May Grunwald-Giemsa staining, morphology by light microscopy", "type": "cell-based, human", "settings": "1 μM PDA-66, 48 h, vs. DMSO treated control cells", "protocol": "as §1, §2"}, "Jurkat cells [3]": {"system": "Jurkat cells", "assay": "Cell cycle analysis, propidium iodide staining, flow cytometry", "type": "cell-based, human", "settings": "1 μM PDA-66, mean±SD", "protocol": "(§3) After treatment cells were harvested and washed twice in PBS. Cells were fixed with 70% ethanol and incubated with 1 mg/ml Ribonuclease A (Sigma-Aldrich, St. Louis, USA) for 30 min at 37° C. After washing the cells twice in PBS, they were stained with PI (50 μg/ml) and DNA content was determined by flow cytometry. All cell lines were incubated with PDA-66 and cell cycle distribution was determined using Propidium iodide staining.\n(§4) The treatment with PDA-66 influenced the four cell lines differently. […] G2 arrest could be detected in RS4;11 and Molt-4 cells after 48 h of treatment. Treatment of Jurkat cells induced a decrease of cells in G0/G1 phase in favor of cells in S phase."}, "Molt-4 cells": {"system": "Molt-4 cells", "assay": "Cell cycle analysis, propidium iodide staining, flow cytometry", "type": "cell-based, human", "protocol": "as §3, §4"}, "RS4;11 cells": {"system": "RS4;11 cells", "assay": "Cell cycle analysis, propidium iodide staining, flow cytometry", "type": "cell-based, human", "protocol": "as §3, §4"}, "SEM cells [4]": {"system": "SEM cells", "assay": "Cell cycle analysis, propidium iodide staining, flow cytometry", "type": "cell-based, human", "protocol": "as §3, §4"}, "[5]": {"system": "cleavage of Caspase 3, 7 and PARP", "assay": "Western blot, induction of apoptosis", "type": "cell-based, human", "settings": "all cell lines (SEM shown exemplarily); 48 h after addition", "protocol": "(A) Cells were treated with PDA-66 for up to 72 h and stained with Annexin V FITC and Propidium iodide (PI). Rates of early apoptotic (FITC^+, PI^−) and late apoptotic and necrotic (FITC^+, PI^+) cells were measured by flow cytometry. Significant induction of apoptosis could be observed in all cell lines after 48 h of incubation as well as tendential induction of necrosis at both points of time. […] (B) Induction of apoptosis was confirmed by Western blot. Cells were treated with different concentrations of PDA-66 and total cell lysates (25 μg) were analyzed by Western blot to detect cleavage of Caspase 3, 7 and PARP. GAPDH was used as loading control.\nAdditionally, the effect of PDA-66 on apoptosis was determined by and western blot. For protein extraction cells were washed twice in PBS and lysed with RIPA buffer (50 mM Tris HCl pH 7.4; 150 mM NaCl; 0.1% SDS and 1% NP40) including protease and phosphatase inhibitors (Roche Applied Science, Mannheim, Germany). Samples were incubated for 20 min at 4° C. and frozen at −20° C. Cell extracts were thawed and centrifuged at 12000 g for 10 min at 4° C. Total protein concentration of supernatants was determined using Bio-Rad Protein Assay (Bio-Rad, München, Germany).\nEqual amounts of protein samples were separated by SDS-polyacrylamid gel (8% or 15%) electrophoresis and transferred onto a PVDF membrane (Amersham Biosciences, Buckinghamshire, UK). […]"}}, "note": "“Also recorded” adds a separate entry of the source.", "data": [{"smiles": "CC(=O)c1ccc(C2=C(c3c(C)[nH]c4ccccc34)C(=O)N(C)C2=O)cc1", "note": "[PDA-66, 3-(4-Acetylphenyl)-1-methyl-4-(2-methyl-1H-indol-3-yl)-1H-pyrrole-2,5-dione]", "values": [{"measurement": "GSK3β enzyme activity", "setting": "recombinant human GSK3β; 10 μM PDA-66", "value": "seems to enhance enzyme activity"}, {"measurement": "GSK3β kinase activity", "setting": "recombinant human GSK3β; 0.25-1 μM PDA-66, 30 min at 30° C., vs. DMSO control", "value": "significantly inhibited; also recorded: inhibition of the enzyme"}, {"measurement": "dose response relationship of GSK3β kinase activity", "setting": "recombinant human GSK3β; FIG. 1", "value": "bell shaped dose response relationship"}, {"measurement": "morphology", "setting": "Jurkat cells [1]", "value": "condensation of chromatin in the nucleus, karyorrhexis and an increasing amount of vacuoles and cell debris"}, {"measurement": "morphology", "setting": "SEM cells [2]", "value": "condensation of chromatin in the nucleus, karyorrhexis and an increasing amount of vacuoles and cell debris"}, {"measurement": "amount of cells in G0/G1 phase", "setting": "Jurkat cells [3]", "value": "47.3±4.3", "unit": "%"}, {"measurement": "amount of cells in S phase", "setting": "Jurkat cells [3]", "value": "20.0±1.1", "unit": "%"}, {"measurement": "amount of cells in G0/G1 phase", "setting": "Molt-4 cells; 1 μM PDA-66, 48 h, mean±SD", "value": "45.0±7.3", "unit": "%"}, {"measurement": "amount of cells in G2 phase", "setting": "Molt-4 cells; 1 μM PDA-66, 48 h, mean±SD", "value": "41.0±5.8", "unit": "%"}, {"measurement": "cells in G0/G1 phase", "setting": "Molt-4 cells; smaller dosages than 1 μM", "value": "significant increase"}, {"measurement": "amount of cells in G0/G1 phase", "setting": "RS4;11 cells; 1 μM PDA-66, 48 h, mean±SD", "value": "47.3±2.7", "unit": "%"}, {"measurement": "amount of cells in G2 phase", "setting": "RS4;11 cells; 1 μM PDA-66, 48 h, mean±SD", "value": "42.1±4.4", "unit": "%"}, {"measurement": "cells in G0/G1 phase", "setting": "RS4;11 cells; smaller dosages than 1 μM", "value": "significant increase"}, {"measurement": "amount of cells in G0/G1", "setting": "SEM cells [4]; 0.5 μM PDA-66, 48 h, mean±SD", "value": "69.3±2.7", "unit": "%"}, {"measurement": "effect on cell cycle", "setting": "SEM cells [4]; 1 μM PDA-66, 48 h", "value": "did not affect the cell cycle significantly"}, {"measurement": "cleavage of caspases 3 and 7 and PARP", "setting": "[5]", "value": "induced cleavage"}]}]}
